≈ marks a conversion by molar mass, not a printed value. Where two headings read alike, the source gives them in different places.
Key:
Assay type in all cases: physicochemical
[1] = Solubility in 7/3 v/v toluene/MeOH
[2] = Storage stability (processability assessment), 12 months
Description: There is a risk of Form 2 conversion to hydrate at the typical wet granulation temperature when seeds of hydrate are present.

[3] = Slurry form-conversion experiments in organic solvents (relative thermodynamic stability)
Description: Form 1 and Form 2 are monotropically related.
This is evidence that Form 1 is more thermodynamically stable than Form 2.

[4] = Conversion to hydrate risk: slurry in 5% SLS aqueous solution seeded with 5% hydrate seeds, PXRD; conditions: 20 mg/mL in 5% SLS aqueous solution, 24 hours
Description: Slurry experiments in water containing 5% SLS were used to assess the risk of form conversion during wet granulation. Typical wet granulation conditions include drying at 60 to 70° C. for 1.5 to 2 hours.
Slurries containing 20 mg/mL of either Form 1 or Form 2 in 5% sodium lauryl sulfate (SLS) aqueous solution were seeded with 5% hydrate seeds and monitored for form change with PXRD over 24 hours at room temperature and at 80° C.

[5] = 40° C./75% relative humidity (RH)

solubility ([1]; 25 °C) [µg/mL] | solubility ([1]; 40 °C) [µg/mL] | solubility ([1]; 60 °C) [µg/mL] | Physical and chemical stability on storage [2, 5] | Physical and chemical stability on storage ([2]; 55° C.) | Form conversion in slurry seeded with Form 1 ([3]; 2-Me-THF, Ethyl Acetate, MeOH or MeOH/toluene (70:30 v/v), 50° C., seeded with Form 1 at 14 days, 28 days total) | Form conversion in slurry ([3]; Ethyl Acetate and Isopropyl Acetate, 25° C., after 28 days) | Form conversion in competitive slurry ([3]; ~10 mg each of Form 1 and Form 2 in 1 mL MeOH, 50° C., after 4 days) | Hydrate peak growth (PXRD) ([4]; 80° C.) | Hydrate peak growth (PXRD) ([4]; room temperature) | Relative thermodynamic stability ([3]; in aqueous solutions) | solubility ([1]; 25 °C, organic solvent or mixture, 25 °C, read-out: Solubility) [µg/mL] | solubility ([1]; 40 °C, organic solvent or mixture, 40 °C, read-out: Solubility) [µg/mL] | solubility ([1]; 60 °C, organic solvent or mixture, 60 °C, read-out: Solubility) [µg/mL] | Relative thermodynamic stability ([3]; Form 1 versus Form 2, monotropically related) | Form after slurry ([3]; slurried in MeOH, 3 weeks, room temperature) | SMILES
4700 (≈ 13 mM) | 9300 (≈ 25.8 mM) | 15600 (≈ 43.3 mM) | physically and chemically stable | physically and chemically stable | full or conversion to Form 1 | Partial conversion | full conversion to Form 1 | no hydrate peak growth was observed | hydrate peak growth was observed | – | – | – | – | – | – | COc1cc(Nc2nn([C@H]3COCC[C@@H]3C#N)cc2C(N)=O)cc(F)n1 [Form 2, 1-[(3R,4S)-4-cyanotetrahydropyran-3-yl]-3-[(2-fluoro-6-methoxy-4-pyridyl)amino]pyrazole-4-carboxamide]
– | – | – | – | – | – | – | – | – | – | most stable form in aqueous solutions | – | – | – | – | – | COc1cc(Nc2nn([C@H]3COCC[C@@H]3C#N)cc2C(N)=O)cc(F)n1 [Hydrate, 1-[(3R,4S)-4-cyanotetrahydropyran-3-yl]-3-[(2-fluoro-6-methoxy-4-pyridyl)amino]pyrazole-4-carboxamide]
– | – | – | physically and chemically stable | physically and chemically stable | – | – | – | No hydrate peak growth observed | No hydrate peak growth observed | – | 3400 (≈ 9.44 mM) | 6600 (≈ 18.3 mM) | 12500 (≈ 34.7 mM) | more stable than Form 2 | remained as Form 1 | COc1cc(Nc2nn([C@H]3COCC[C@@H]3C#N)cc2C(N)=O)cc(F)n1 [Form 1, 1-[(3R,4S)-4-cyanotetrahydropyran-3-yl]-3-[(2-fluoro-6-methoxy-4-pyridyl)amino]pyrazole-4-carboxamide]

From patent US12018020B2, “Crystalline forms of 1-[(3R,4S)-4-cyanotetrahydropyran-3-yl]-3-[(2-fluoro-6-methoxy-4-pyridyl)amino]pyrazole-4-carboxamide” (Intervet Inc., priority 2018, dated 2024)
